Assay [1] addresses T1, hMAT2A (Homo sapiens, UniProt P31153). Put plainly: Malachite Green Assay (MAT2A enzyme inhibition). It counts as biochemical. Details: amino acids 1-395; purchased Cepter. The conditions noted are these: hMAT2A 50 nM, substrates 500 uM each, 1 hour. As to the method:
(§1) The ability of the compound of present disclosure to inhibit MAT2A enzyme was determined using the Malachite Green or Phosphate Sensor Fluorescence Assay described below.
Biologic Example A. Malachite Green Assay
Enzyme: MAT2A • hMAT2A: 50 nM, Cepter, 10 mg/mL (234 μM), amino acids 1-395 • Substrates: 500 uM each • Reaction time: 1 hour
L-methionine Substrate: Alfa Aesar catalog #J61904
ATP Substrate: Alfa Aesar cat #J60336
Malachite Green Detection Reagent: Millipore Sigma catalog #MAK307-1KT
Assay buffer: 50 mM Tris, pH 7.5/50 mM KCl/10 mM MgCl2/0.01% Brij-35/1 mM DTT/0.1% BGG
0% inhibition control: DMSO
100% inhibition control: No enzyme
5 μL of 3× final concentration test compounds in DMSO or DMSO were transferred to the appropriate wells of a microtiter plate and the plate was centrifuged at 1000 rpm for 1 minute. 5 μL of 3× final concentration MAT2A enzyme in assay buffer or assay buffer alone was transferred to the appropriate wells and the plate was centrifuged at 1000 rpm for 1 minute. The plate was incubated at room temperature for 15 minutes and then 5 μL of 3× the L-methionine and ATP substrate mixture in assay buffer was transferred to all the test wells. The plate was centrifuged at 1000 rpm for 1 minute and then incubated at room temperature for 1 hour. 5 μL of malachite green detection reagent was added to all the test wells and the plate was centrifuged at 1000 rpm for 1 minute and then incubated at room temperature for 30 minutes. The plate was read for absorbance at 620 nm on a plate reader (e.g., Infinite M1000). The high control (DMSO) with high absorbance represents no inhibition of enzymatic reaction while the low control (no enzyme) with low absorbance represents full inhibition of enzymatic reaction.

Assay [2] addresses T1, hMAT2A. Put plainly: Phosphate Sensor Fluorescence Assay (MAT2A enzyme inhibition). The assay is classed as biochemical. Details: Human MAT2A: Cepter, amino acids 1-395; purchased Cepter clone ID 329, lot 00023-123; clone ID 334, lot 00023-148. The settings on record: L-methionine and ATP 500 uM, 1 hour. As to the method:
as §1
Biologic Example B. Phosphate Sensor Fluorescence Assay
MAT2A enzyme is incubated with a test compound in DMSO or DMSO and its substrates (L-methionine and ATP) in a microtiter plate. The enzymatic reaction is stopped by the addition of Working Phosphate Sensor Mixture. The plate is analyzed for fluorescence at 450 nm. The high control (DMSO with enzyme and its substrates) gives high fluorescence which represents no inhibition of enzymatic activity while the low control (DMSO with MAT2A substrates and no enzyme) gives low fluorescence which represents full inhibition of enzymatic activity.
Human MAT2A: Cepter, amino acids 1-395
Assay Buffer: 50 mM Tris, pH 7.5/50 mM KCl/10 mM MgCl2/0.01% Brij-35/1 mM DTT/0.1% BGG/40 nM PNP/6 uM 7-MEG
MAT2A: 10 nM for Cepter clone ID 329, lot 00023-123 before the addition of Working Phosphate Sensor Mixture • 5 nM for Cepter clone ID 334, lot 00023-148 before the addition of Working Phosphate Sensor Mixture
L-methionine: 500 uM before the addition of Working Phosphate Sensor Mixture
ATP: 500 uM before the addition of Working Phosphate Sensor Mixture
For the assay, a mixture of 1 mM L-methionine/1 mM ATP (2× final pre-stopped concentration) in assay buffer; MAT2A (2× final pre-stopped concentration) in Assay Buffer and Working Phosphate Sensor Mixture (1.5 uM Phosphate Sensor/30 mM EDTA in Assay Buffer, which is 3× final concentrations) were prepared. Test compounds or DMSO were added to the appropriate well suing D300e digital dispenser. 5 μl/well of Assay Buffer was added to the wells corresponding to the negative control and 5 μl/well of MAT2A was added to all the wells except for those corresponding to the negative control. After incubating the plate at room temperature for 15 minutes, 5 μl/well of the 1 mM L-methionine/1 mM ATP mixture was added to all wells. The plate was centrifuged at 1000 rpm for 1 minute and then incubated at room temperature for 1 hour. 5 μl of the Working Phosphate Sensor Mixture was added to all wells and the plate was centrifuged at 1000 rpm for 1 minute. The plate was read for fluorescence at 450 nm after exciting at 430 nm.
Percent inhibition was calculated in Chemical and Biological Information System (CBIS), (ChemInnovation Software Inc.). Curves were fitted by CBIS as % inhibition vs. log [compound concentration] using a 4-parameter inhibition model.
Fit=(A+((B−A)/(1+((C/x)^D))))

T1 sequence (P31153 whole entry, the tested form may be a part): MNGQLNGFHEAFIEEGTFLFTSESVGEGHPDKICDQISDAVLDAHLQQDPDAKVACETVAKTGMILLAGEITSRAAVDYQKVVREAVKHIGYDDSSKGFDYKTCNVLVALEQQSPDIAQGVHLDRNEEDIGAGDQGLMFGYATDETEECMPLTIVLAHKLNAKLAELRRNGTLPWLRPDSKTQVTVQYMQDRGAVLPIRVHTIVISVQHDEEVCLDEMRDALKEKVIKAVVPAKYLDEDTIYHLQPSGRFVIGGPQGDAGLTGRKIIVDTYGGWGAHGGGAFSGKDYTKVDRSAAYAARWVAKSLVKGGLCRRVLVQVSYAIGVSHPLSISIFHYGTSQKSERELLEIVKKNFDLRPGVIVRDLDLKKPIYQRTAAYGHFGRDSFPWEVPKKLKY

By IC50 is commonly meant the midpoint of a concentration-inhibition curve. `CNC(=O)c1nc(-c2ccccc2)c2cc(Cl)ccc2n1` [1.008, 6-chloro-N-methyl-4-phenylquinazoline-2-carboxamide]: the IC50 is > 10 µM against hMAT2A [1] (numeric bound) and > 10000 nM at hMAT2A [2] (numeric bound).

Regarding `CC(C)(C)OC(=O)N1CC(Oc2nc(-c3ccccc3)c3cc(Cl)ccc3n2)C1` [1.004, tert-butyl 3-((6-chloro-4-phenylquinazolin-2-yl)oxy)azetidine-1-carboxylate], the IC50 against hMAT2A [1] (numeric bound) is > 10 µM; against hMAT2A [2] (numeric bound) it was > 10000 nM. For the compound `Oc1nc(-c2ccccc2)c2cc(C(F)(F)F)ccc2n1` [1.015, 4-phenyl-6-(trifluoromethyl)quinazolin-2-ol], the IC50 against hMAT2A [2] (class symbols) was 10 to 200 nM. Still for that read-out and setting: as for `Cc1ncccc1-c1nc(O)nc2ccc(Br)cc12` [1.020, 6-bromo-4-(2-methylpyridin-3-yl)quinazolin-2-ol], the figure is 10 to 200 nM.

For the compound `COC(=O)Cc1nc(-c2ccccc2)c2cc(Cl)ccc2n1` [1.012, methyl 2-(6-chloro-4-phenylquinazolin-2-yl)acetate], the IC50 is > 10 µM against hMAT2A [1] (numeric bound) and > 10000 nM on hMAT2A [2] (numeric bound).

In the case of `Clc1ccc2nc(Cl)nc(-c3ccccc3)c2c1` [1.002, 2,6-dichloro-4-phenylquinazoline], the IC50 at hMAT2A [1] (numeric bound) is > 10 µM; on hMAT2A [2] (numeric bound) it was > 10000 nM. `Cc1ccccc1-c1nc(O)nc2ccc(C3CC3)cc12` [1.016, 6-cyclopropyl-4-(o-tolyl)quinazolin-2-ol]: at hMAT2A [2] (class symbols), the IC50 lay in the range of 10 to 200 nM. For `COc1cc(C2CC2)cc2c(-c3ccccc3)nc(O)nc12` [1.019, 6-cyclopropyl-8-methoxy-4-phenylquinazolin-2-ol], the IC50 against hMAT2A [2] (class symbols) was 10 to 200 nM.

As to `Oc1nc(-c2cccnc2)c2cc(Br)ccc2n1` [1.017, 6-bromo-4-(pyridin-3-yl)quinazolin-2-ol], the IC50 on hMAT2A [2] (class symbols) fell in the range of 1000 to 10000 nM. With `O=C(O)c1nc(-c2ccccc2)c2cc(Cl)ccc2n1` [1.006, 6-chloro-4-phenylquinazoline-2-carboxylic acid], at hMAT2A [2] (numeric bound), the 50% inhibitory concentration (IC50) is > 10000 nM. Consider `O=c1nc(-c2ccccc2)c2cc(Br)ccc2[nH]1` [1.013, 6-bromo-4-phenylquinazolin-2-ol], for which the values for the IC50 on hMAT2A [1] (class symbols) and against hMAT2A [2] (class symbols) were 0.01 to 0.2 µM and 10 to 200 nM, respectively. Consider `OCc1nc(-c2ccccc2)c2cc(Cl)ccc2n1` [1.009], for which the values for the IC50 at hMAT2A [1] (numeric bound) and against hMAT2A [2] (numeric bound) were > 10 µM and > 10000 nM, respectively.

In turn, `Oc1nc(-c2cccnc2Cl)c2cc(Br)ccc2n1` [1.003, 6-bromo-4-(2-chloropyridin-3-yl)quinazolin-2-ol] showed an IC50 at hMAT2A [2] (class symbols) of 200 to 500 nM. As for `O=c1nc(-c2ccccc2)c2cc(Cl)ccc2[nH]1` [1.001, 6-chloro-4-phenylquinazolin-2-ol], the concentration for half-maximal inhibition (IC50) against hMAT2A [1] (class symbols) lay within 0.01 to 0.2 µM; at hMAT2A [2] (class symbols), 10 to 200 nM. As to `Oc1nc(-c2cccnc2C(F)(F)F)c2cc(Br)ccc2n1` [1.021, 6-bromo-4-(2-(trifluoromethyl)pyridin-3-yl)quinazolin-2-ol], the IC50 at hMAT2A [2] (class symbols) is 1000 to 10000 nM.

For the compound `NC(=O)Cc1nc(-c2ccccc2)c2cc(Cl)ccc2n1` [1.011, 2-(6-chloro-4-phenylquinazolin-2-yl)acetamide], the half-maximal inhibitory concentration (IC50) is > 10 µM on hMAT2A [1] (numeric bound) and > 10000 nM at hMAT2A [2] (numeric bound). The matching figures for `N#CCc1nc(-c2ccccc2)c2cc(Cl)ccc2n1` [1.010, 2-(6-chloro-4-phenylquinazolin-2-yl)acetonitrile]: > 10 µM and > 10000 nM. Regarding `Cc1ccc2nc(O)nc(-c3ccccc3)c2n1` [1.018, 6-methyl-4-phenylpyrido[3,2-d]pyrimidin-2-ol], the half-maximal inhibitory concentration (IC50) at hMAT2A [2] (class symbols) fell in the range of 1000 to 10000 nM.

On to `N#Cc1nc(-c2ccccc2)c2cc(Cl)ccc2n1` [1.005, 6-chloro-4-phenylquinazoline-2-carbonitrile], for which the results for the IC50 against hMAT2A [1] (numeric bound) and against hMAT2A [2] (numeric bound) were > 10 µM and > 10000 nM, respectively.

With `Cc1ccc2[nH]c(=O)nc(-c3ccccc3)c2c1` [1.014, 6-methyl-4-phenylquinazolin-2-ol], on hMAT2A [2] (class symbols), the IC50 fell in the range of 500 to 1000 nM.

The values above are taken from US20230257359A1, “4-ARYLQUINAZOLINE DERIVATIVES AS METHIONINE ADENOSYLTRANSFERASE 2A INHIBITORS” (IDEAYA BIOSCIENCES, INC., priority 2020, published 2023).
